Reference: paper PMC10294378, “Synthesis, α-Glucosidase inhibitory activity and docking studies of Novel Ethyl 1,2,3-triazol-4-ylmethylthio-5,6-diphenylpyridazine-4-carboxylate derivatives” (BMC Chemistry, 2023)
“Also recorded” adds a separate entry of the source.

Tests used:
[1] = test system: rat small intestine α-glucosidase; assay: Rat α-glucosidase assay (4-nitrophenol release from pNPG); assay type: biochemical; settings: for α-glucosidase inhibitory activity (in words): SAR discussion; for IC50: rat small intestine α-glucosidase, means of three replicates ± standard deviation
Method: Based on the reported method of Lossow et al., rat small intestine α-glucosidase (EC 3.2.1.20) was prepared. The in-vitro activity was determined by the measurement of 4-nitrophenol which was released from para-nitrophenyl α-D glucopyranoside. The preparation of 200 µL was performed as follows: the enzyme solution (190 µL, 0.15 units/ml), different concentrations of target compounds (1, 10, 20, 50, 100, 500 and 1000 µM (5 µL), potassium phosphate buffer. Final compounds were dissolved in DMSO (not exceed than 5% of final volume) and pre-incubated at 37 °C, p-nitrophenyl glucopyranoside and then substrate (5 µL, 3 mM), was added to the enzyme solution and incubated for further one hour at 37 °C. Finally, by using Cytation 3 hybrid microplate reader (BioTek, USA) any change in the absorbance was measured at 405 nm. By using GraphPadprism 6.0 (SanDiego, California, USA) (https://www.graphpad.com/scientificsoftware/prism/) was used to obtain IC50 values of tested compounds.

HDF = assay: Cytotoxicity against normal cell line; assay type: cell-based
α-glucosidase = assay: Kinetic analysis (Lineweaver-Burk and secondary plot); assay type: biochemical, rat
Method: Modes of enzyme inhibition were determined by recording the effect of various concentrations of the substrates 1, 2.5, 5 or 10 mM pNPG for α-glucosidase on Lineweaver–Burk plots using calculated Vmax and Km. For inhibition test of α-glucosidase: the concentrations applied for compounds 10k was 0.1, 1, 5 and 10 nM. Inhibition constants (Ki) were determined by depicting the secondary plot of Km against various concentrations of inhibitors.
The activity of […] (PNPG) was investigated in the presence and absence of compound 10k.

SMILES	α-glucosidase inhibitory activity (in words) [1]	IC50 [1]	melting point	cytotoxicity (HDF)	mode of inhibition (α-glucosidase)	folds more active than standard drug (acarbose) ([1]; ratio of IC50 values against acarbose)
CCOC(=O)c1c(SCc2cn(CC(=O)Nc3cc(Cl)cc(Cl)c3)nn2)nnc(-c2ccccc2)c1-c1ccccc1 [10 L, Ethyl 3-(((1-(2-((3,5-dichlorophenyl)amino)-2-oxoethyl)-1H-1,2,3-triazol-4-yl)methyl)thio)-5,6-diphenylpyridazine-4-carboxylate]	active	14.1 ± 3.3 µM	185 to 187 °C			
CCOC(=O)c1c(SCc2cn(CC(=O)Nc3ccc(F)cc3)nn2)nnc(-c2ccccc2)c1-c1ccccc1 [10 g, Ethyl 3-(((1-(2-((4-fluorophenyl)amino)-2-oxoethyl)-1H-1,2,3-triazol-4-yl)methyl)thio)-5,6-diphenylpyridazine-4-carboxylate]		37.5 ± 7.2 µM	211 to 213 °C			
CCOC(=O)c1c(SCc2cn(CC(=O)Nc3ccccc3Cl)nn2)nnc(-c2ccccc2)c1-c1ccccc1 [10 h, Ethyl 3-(((1-(2-((2-chlorophenyl)amino)-2-oxoethyl)-1H-1,2,3-triazol-4-yl)methyl)thio)-5,6-diphenylpyridazine-4-carboxylate]		14.9 ± 1.9 µM	161 to 163 °C			
CCOC(=O)c1c(SCc2cn(CC(=O)Nc3ccc(Cl)c(Cl)c3)nn2)nnc(-c2ccccc2)c1-c1ccccc1 [10 m, Ethyl 3-(((1-(2-((3,4-dichlorophenyl)amino)-2-oxoethyl)-1H-1,2,3-triazol-4-yl)methyl)thio)-5,6-diphenylpyridazine-4-carboxylate]	active	27.7 ± 3 µM	166 to 168 °C			
C[C@H]1O[C@H](O[C@H]2[C@H](O)[C@@H](O)[C@@H](O[C@H]3[C@H](O)[C@@H](O)C(O)O[C@@H]3CO)O[C@@H]2CO)[C@H](O)[C@@H](O)[C@@H]1N[C@H]1C=C(CO)[C@@H](O)[C@H](O)[C@H]1O (stereo partly drawn) [Acarbose, reference compound]		170 ± 23.1 µM				
CCOC(=O)c1c(SCc2cn(CC(=O)Nc3ccccc3)nn2)nnc(-c2ccccc2)c1-c1ccccc1 [Compound 10a, Ethyl 3-(((1-(2-oxo-2-(phenylamino)ethyl)-1H-1,2,3-triazol-4-yl)methyl)thio)-5,6-diphenylpyridazine-4-carboxylate]		35.6 ± 8.9 µM	147 to 149 °C			
CCOC(=O)c1c(SCc2cn(CC(=O)Nc3cccc(C)c3)nn2)nnc(-c2ccccc2)c1-c1ccccc1 [Compound 10b, Ethyl 3-(((1-(2-oxo-2-(m-tolylamino)ethyl)-H-1,2,3-triazol-4-yl)methyl)thio)-5,6-diphenylpyridazine-4-carboxylate]		58.9 ± 7.5 µM				
CCOC(=O)c1c(SCc2cn(CC(=O)Nc3ccc(C)cc3)nn2)nnc(-c2ccccc2)c1-c1ccccc1 [Compound 10c, Ethyl 3-(((1-(2-oxo-2-(p-tolylamino)ethyl)-1H-1,2,3-triazol-4-yl)methyl)thio)-5,6-diphenylpyridazine-4-carboxylate]		> 250 µM	207 to 209 °C			
CCOC(=O)c1c(SCc2cn(CC(=O)Nc3ccc(C(C)C)cc3)nn2)nnc(-c2ccccc2)c1-c1ccccc1 [Compound 10d, Ethyl 3-(((1-(2-((4-isopropylphenyl)amino)-2-oxoethyl)-1H-1,2,3-triazol-4-yl)methyl)thio)-5,6-diphenylpyridazine-4-carboxylate]		86.5 ± 7.3 µM	183 to 185 °C			
CCOC(=O)c1c(SCc2cn(CC(=O)Nc3cccc(OC)c3)nn2)nnc(-c2ccccc2)c1-c1ccccc1 [Compound 10e, Ethyl 3-(((1-(2-((3-methoxyphenyl)amino)-2-oxoethyl)-1H-1,2,3-triazol-4-yl)methyl)thio)-5,6-diphenylpyridazine-4-carboxylate]		35.7 ± 3.9 µM	155 to 157 °C			
CCOC(=O)c1c(SCc2cn(CC(=O)Nc3ccc(OC)cc3)nn2)nnc(-c2ccccc2)c1-c1ccccc1 [Compound 10f, Ethyl 3-(((1-(2-((4-methoxyphenyl)amino)-2-oxoethyl)-1H-1,2,3-triazol-4-yl)methyl)thio)-5,6-diphenylpyridazine-4-carboxylate]		25.2 ± 2.5 µM	230 to 232 °C			
CCOC(=O)c1c(SCc2cn(CC(=O)Nc3cccc(Cl)c3)nn2)nnc(-c2ccccc2)c1-c1ccccc1 [Compound 10i, Ethyl 3-(((1-(2-((3-chlorophenyl)amino)-2-oxoethyl)-1H-1,2,3-triazol-4-yl)methyl)thio)-5,6-diphenylpyridazine-4-carboxylate]	no inhibitory activity	> 250 µM	200 to 202 °C			
CCOC(=O)c1c(SCc2cn(CC(=O)Nc3ccc(Cl)cc3)nn2)nnc(-c2ccccc2)c1-c1ccccc1 [Compound 10j, Ethyl 3-(((1-(2-((4-chlorophenyl)amino)-2-oxoethyl)-1H-1,2,3-triazol-4-yl)methyl)thio)-5,6-diphenylpyridazine-4-carboxylate]		21 ± 5.3 µM	195 to 197 °C			
CCOC(=O)c1c(SCc2cn(CC(=O)Nc3ccc(Br)cc3)nn2)nnc(-c2ccccc2)c1-c1ccccc1 [Compound 10k, Ethyl 3-(((1-(2-((4-bromophenyl)amino)-2-oxoethyl)-1H-1,2,3-triazol-4-yl)methyl)thio)-5,6-diphenylpyridazine-4-carboxylate]		1.7 ± 0.12 µM	224 to 226 °C	not toxic; also recorded: No toxicity	uncompetitive	100 folds
CCOC(=O)c1c(SCc2cn(CC(=O)Nc3cccc(C#N)c3)nn2)nnc(-c2ccccc2)c1-c1ccccc1 [Compound 10n, Ethyl 3-(((1-(2-((3-cyanophenyl)amino)-2-oxoethyl)-1H-1,2,3-triazol-4-yl)methyl)thio)-5,6-diphenylpyridazine-4-carboxylate]		> 250 µM	196 to 198 °C			
CCOC(=O)c1c(SCc2cn(CC(=O)Nc3cccc([N+](=O)[O-])c3)nn2)nnc(-c2ccccc2)c1-c1ccccc1 [Compound 10p, Ethyl 3-(((1-(2-((3-nitrophenyl)amino)-2-oxoethyl)-1H-1,2,3-triazol-4-yl)methyl)thio)-5,6-diphenylpyridazine-4-carboxylate]		84 ± 13.2 µM	201 to 203 °C			
CCOC(=O)c1c(SCc2cn(CC(=O)Nc3ccc([N+](=O)[O-])cc3)nn2)nnc(-c2ccccc2)c1-c1ccccc1 [Compound 10q, Ethyl 3-(((1-(2-((4-nitrophenyl)amino)-2-oxoethyl)-1H-1,2,3-triazol-4-yl)methyl)thio)-5,6-diphenylpyridazine-4-carboxylate]	active	47.1 ± 5.6 µM	221 to 223 °C			
CCOC(=O)c1c(SCc2cn(CC(=O)Nc3ccc([N+](=O)[O-])c(C)c3)nn2)nnc(-c2ccccc2)c1-c1ccccc1 [Compound 10r, Ethyl 3-(((1-(2-((3-methyl-4-nitrophenyl)amino)-2-oxoethyl)-1H-1,2,3-triazol-4-yl)methyl)thio)-5,6-diphenylpyridazine-4-carboxylate]	no activity	> 250 µM	212 to 214 °C			
